Test results: ChEMBL document CHEMBL1629634, “Postantibiotic effect of tigecycline against 14 gram-positive organisms” (Antimicrob Agents Chemother, 2009)
Converted amounts (≈) assume the structure as drawn.

Columns and labels:
Staphylococcus aureus [1] = assay: Antibacterial activity against vancomycin-sensitive methicillin-resistant Staphylococcus aureus assessed as post-antibiotic sub-MIC effect at 0.2 times MIC concentration pretreated with 10 times MIC concentration for 1 hr followed by 1:1000 dilution by viable plate count method; assay type: functional
Haemophilus influenzae [2] = assay: Antibacterial activity against amoxicillin, clavulanate-resistant Haemophilus influenzae expressing beta-lactamase assessed as post-antibiotic sub-MIC effect at 0.2 times MIC concentration pretreated with 6 times MIC concentration for 1 hr followed by 1:1000 dilution by viable plate count method; assay type: functional
Klebsiella pneumoniae [3] = assay: Antibacterial activity against Klebsiella pneumoniae assessed as post-antibiotic sub-MIC effect at 0.2 times MIC concentration pretreated with 10 times MIC concentration for 1 hr followed by 1:1000 dilution by viable plate count method; assay type: functional
Acinetobacter baumannii [4] = assay: Antibacterial activity against Acinetobacter baumannii assessed as post-antibiotic sub-MIC effect at 0.2 times MIC concentration pretreated with 10 times MIC concentration for 1 hr followed by 1:1000 dilution by viable plate count method; assay type: functional
Acinetobacter baumannii [5] = assay: Antibacterial activity against Acinetobacter baumannii assessed as post-antibiotic sub-MIC effect at 0.2 times MIC concentration pretreated with 6 times MIC concentration for 1 hr followed by 1:1000 dilution by viable plate count method; assay type: functional
Streptococcus pneumoniae [6] = assay: Antibacterial activity against penicillin-susceptible Streptococcus pneumoniae assessed as sub-MIC effect at 0.3 times MIC concentration incubated for 1 hr by viable plate count method; assay type: functional
Streptococcus pneumoniae [7] = assay: Antibacterial activity against penicillin-resistant Streptococcus pneumoniae assessed as sub-MIC effect at 0.3 times MIC concentration incubated for 1 hr by viable plate count method; assay type: functional
Staphylococcus aureus [8] = assay: Antibacterial activity against vancomycin-intermediate methicillin-resistant Staphylococcus aureus assessed as sub-MIC effect at 0.3 times MIC concentration incubated for 1 hr by viable plate count method; assay type: functional
Haemophilus influenzae [9] = assay: Antibacterial activity against amoxicillin, clavulanate-resistant Haemophilus influenzae expressing beta-lactamase assessed as sub-MIC effect at 0.3 times MIC concentration incubated for 1 hr by viable plate count method; assay type: functional
Klebsiella pneumoniae [10] = assay: Antibacterial activity against Klebsiella pneumoniae assessed as sub-MIC effect at 0.3 times MIC concentration incubated for 1 hr by viable plate count method; assay type: functional
Enterobacter cloacae [11] = assay: Antibacterial activity against Enterobacter cloacae assessed as sub-MIC effect at 0.3 times MIC concentration incubated for 1 hr by viable plate count method; assay type: functional
Streptococcus pneumoniae [12] = assay: Antibacterial activity against penicillin-susceptible Streptococcus pneumoniae assessed as post-antibiotic sub-MIC effect at 0.3 times MIC concentration pretreated with 10 times MIC concentration for 1 hr followed by 1:1000 dilution by viable plate count method; assay type: functional
Streptococcus pneumoniae [13] = assay: Antibacterial activity against penicillin-intermediate Streptococcus pneumoniae assessed as post-antibiotic sub-MIC effect at 0.3 times MIC concentration pretreated with 10 times MIC concentration for 1 hr followed by 1:1000 dilution by viable plate count method; assay type: functional
Streptococcus pneumoniae [14] = assay: Antibacterial activity against penicillin-resistant Streptococcus pneumoniae assessed as post-antibiotic sub-MIC effect at 0.3 times MIC concentration pretreated with 10 times MIC concentration for 1 hr followed by 1:1000 dilution by viable plate count method; assay type: functional
Escherichia coli [15] = assay: Antibacterial activity against Escherichia coli assessed as post-antibiotic sub-MIC effect at 0.3 times MIC concentration pretreated with 6 times MIC concentration for 1 hr followed by 1:1000 dilution by viable plate count method; assay type: functional
Streptococcus pneumoniae [16] = assay: Antibacterial activity against penicillin-intermediate Streptococcus pneumoniae assessed as sub-MIC effect at 0.4 times MIC concentration incubated for 1 hr by viable plate count method; assay type: functional
Streptococcus pneumoniae [17] = assay: Antibacterial activity against penicillin-resistant Streptococcus pneumoniae assessed as sub-MIC effect at 0.4 times MIC concentration incubated for 1 hr by viable plate count method; assay type: functional
Haemophilus influenzae [18] = assay: Antibacterial activity against amoxicillin, clavulanate-resistant Haemophilus influenzae expressing beta-lactamase assessed as sub-MIC effect at 0.4 times MIC concentration incubated for 1 hr by viable plate count method; assay type: functional
Klebsiella pneumoniae [19] = assay: Antibacterial activity against Klebsiella pneumoniae assessed as sub-MIC effect at 0.4 times MIC concentration incubated for 1 hr by viable plate count method; assay type: functional
Enterobacter cloacae [20] = assay: Antibacterial activity against Enterobacter cloacae assessed as sub-MIC effect at 0.4 times MIC concentration incubated for 1 hr by viable plate count method; assay type: functional
Klebsiella pneumoniae [21] = assay: Antibacterial activity against Klebsiella pneumoniae assessed as sub-MIC effect at 0.2 times MIC concentration incubated for 1 hr by viable plate count method; assay type: functional
Enterococcus faecalis [22] = assay: Antibacterial activity against vancomycin-sensitive Enterococcus faecalis assessed as sub-MIC effect at 0.2 times MIC concentration incubated for 1 hr by viable plate count method; assay type: functional
Staphylococcus aureus [23] = assay: Antibacterial activity against vancomycin-intermediate methicillin-resistant Staphylococcus aureus assessed as sub-MIC effect at 0.2 times MIC concentration incubated for 1 hr by viable plate count method; assay type: functional
Acinetobacter baumannii [24] = assay: Antibacterial activity against Acinetobacter baumannii assessed as post antibiotic effect at 6 times MIC concentration incubated for 1 hr measured after 1:1000 dilution by viable plate count method; assay type: functional
Klebsiella pneumoniae [25] = assay: Antibacterial activity against Klebsiella pneumoniae assessed as post antibiotic effect at 2 times MIC concentration incubated for 1 hr measured after 1:1000 dilution by viable plate count method; assay type: functional
Enterococcus faecalis [26] = assay: Antibacterial activity against vancomycin-resistant Enterococcus faecalis assessed as post antibiotic effect at 10 times MIC concentration incubated for 1 hr measured after 1:1000 dilution by viable plate count method; assay type: functional
Staphylococcus aureus [27] = assay: Antibacterial activity against vancomycin-intermediate methicillin-resistant Staphylococcus aureus assessed as post antibiotic effect at 10 times MIC concentration incubated for 1 hr measured after 1:1000 dilution by viable plate count method; assay type: functional
Escherichia coli [28] = assay: Antibacterial activity against Escherichia coli by macrodilution method; assay type: functional
Haemophilus influenzae [29] = assay: Antibacterial activity against amoxicillin, clavulanate-resistant Haemophilus influenzae expressing beta-lactamase by macrodilution method; assay type: functional
Staphylococcus aureus [30] = assay: Antibacterial activity against vancomycin-intermediate methicillin-resistant Staphylococcus aureus by macrodilution method; assay type: functional
Acinetobacter baumannii [31] = assay: Antibacterial activity against Acinetobacter baumannii assessed as post-antibiotic sub-MIC effect at 0.4 times MIC concentration pretreated with 10 times MIC concentration for 1 hr followed by 1:1000 dilution by viable plate count method; assay type: functional
Acinetobacter baumannii [32] = assay: Antibacterial activity against multidrug-resistant Acinetobacter baumannii producing OXA-24 and OXA-51 beta-lactamases assessed as post-antibiotic sub-MIC effect at 0.4 times MIC concentration pretreated with 2 times MIC concentration for 1 hr followed by 1:1000 dilution by viable plate count method; assay type: functional
Enterococcus faecalis [33] = assay: Antibacterial activity against Enterococcus faecalis assessed as post antibiotic effect; assay type: functional
Klebsiella pneumoniae [34] = assay: Antibacterial activity against Klebsiella pneumoniae assessed as post antibiotic effect; assay type: functional
Enterobacter cloacae [35] = assay: Antibacterial activity against Enterobacter cloacae assessed as post antibiotic effect; assay type: functional
Streptococcus pneumoniae [36] = assay: Antibacterial activity against Streptococcus pneumoniae infected in neutropenic mouse thighs assessed as post antibiotic effect; assay type: functional, Thigh muscle
Escherichia coli [37] = assay: Antibacterial activity against Escherichia coli assessed as post-antibiotic sub-MIC effect at 0.4 times MIC concentration pretreated with 10 times MIC concentration for 1 hr followed by 1:1000 dilution by viable plate count method; assay type: functional

SMILES: CN(C)c1cc(NC(=O)CNC(C)(C)C)c(O)c2c1C[C@H]1C[C@H]3[C@H](N(C)C)C(O)=C(C(N)=O)C(=O)[C@@]3(O)C(O)=C1C2=O [TIGECYCLINE]
- PAE (Staphylococcus aureus [1]): 3.6 h
- PAE (Haemophilus influenzae [2]): 3.9 h
- PAE (Klebsiella pneumoniae [3]): 1.9 h
- PAE (Acinetobacter baumannii [4]): 6.7 h
- PAE (Acinetobacter baumannii [5]): 5.2 h
- PAE (Streptococcus pneumoniae [6]): 0 h
- PAE (Streptococcus pneumoniae [7]): 0.5 h
- PAE (Staphylococcus aureus [8]): 2.9 h
- PAE (Haemophilus influenzae [9]): 0.8 h
- PAE (Klebsiella pneumoniae [10]): 0.4 h
- PAE (Enterobacter cloacae [11]): 0.4 h
- PAE (Streptococcus pneumoniae [12]): 8.8 h
- PAE (Streptococcus pneumoniae [13]): 8.8 h
- PAE (Streptococcus pneumoniae [14]): 10.2 h
- PAE (Escherichia coli [15]): 2.9 h
- PAE (Streptococcus pneumoniae [16]): 7.7 h
- PAE (Streptococcus pneumoniae [17]): 0.7 h
- PAE (Haemophilus influenzae [18]): 1.9 h
- PAE (Klebsiella pneumoniae [19]): 0.7 h
- PAE (Enterobacter cloacae [20]): 2.7 h
- PAE (Klebsiella pneumoniae [21]): 0.1 h
- PAE (Enterococcus faecalis [22]): 0 h
- PAE (Staphylococcus aureus [23]): 2 h
- PAE (Acinetobacter baumannii [24]): 1.8 h
- PAE (Klebsiella pneumoniae [25]): 1.7 h
- PAE (Enterococcus faecalis [26]): 6 h
- PAE (Staphylococcus aureus [27]): 4 h
- MIC (Escherichia coli [28]): 0.12 µg/mL (≈ 0.205 µM)
- MIC (Haemophilus influenzae [29]): 0.12 µg/mL
- MIC (Staphylococcus aureus [30]): 0.12 µg/mL (≈ 0.205 µM)
- PAE (Acinetobacter baumannii [31]): 11.2 h
- PAE (Acinetobacter baumannii [32]): 3 h
- PAE (Enterococcus faecalis [33]): 1 h
- PAE (Klebsiella pneumoniae [34]): 2 h
- PAE (Enterobacter cloacae [35]): 2 h
- PAE (Streptococcus pneumoniae [36]): 8.9 h
- PAE (Escherichia coli [37]): 3.5 h
